Data taken from patent publication US20100221763A1, “Specific Acceptors for Transferases to Saccharides and Method for Obtaining and Using Same” (Health Research, Inc, priority 2005, published 2010).

Assays:
[1] = target: T1, Rat recombinant α2,3(O)ST (Rattus norvegicus, UniProt Q11205); assay: Sialyltransferase assay with cloned α2,3(O)ST; format: biochemical; conditions: for Km / Vmax: CMP-NeuAc 150 μM, Lineweaver-Burke plot
T1 construct: purchased Calbiochem
T1 sequence (Q11205 1-350): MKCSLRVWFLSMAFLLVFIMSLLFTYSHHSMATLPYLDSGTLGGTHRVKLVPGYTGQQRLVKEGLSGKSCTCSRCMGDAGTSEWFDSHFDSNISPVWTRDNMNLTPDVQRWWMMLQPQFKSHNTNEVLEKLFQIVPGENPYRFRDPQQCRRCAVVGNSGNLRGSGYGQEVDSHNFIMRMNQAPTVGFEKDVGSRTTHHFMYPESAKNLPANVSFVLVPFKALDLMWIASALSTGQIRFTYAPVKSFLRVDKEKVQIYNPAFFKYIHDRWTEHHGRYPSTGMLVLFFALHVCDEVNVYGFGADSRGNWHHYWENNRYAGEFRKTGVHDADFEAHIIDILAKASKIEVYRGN
Description: (§1) Rat recombinant α2,3(O)ST, α2,3(N)ST and α2,6(N)ST were purchased from Calbiochem and stored at either −20° C. or −70° C. as recommended by the supplier. […] 10 μl aliquots of the diluted enzymes were used in the assays run in duplicate.
(§2) The incubation mixtures run in duplicate contained 0.1M NaCacodylate buffer pH6.0, the acceptor (typically at 7.5 mM, or as indicated in some experiments), CMP-[9 ^3H] NeuAc (typically 0.2 μci; 20 μci/nmol or as indicated in some experiments) and the enzyme in a total volume of 20 μl. The control incubation mixtures contained everything except the acceptor. Incubation was carried out for 2 h at 37° C. The enzymatic transfer of [9-^3H] NeuAc to a typical acceptor was linear for 2 h and less than 30% CMP-[9-^3H] NeuAc was utilized. Chromatography, using either Dowex-1-Formate, Sep-Pak C18 or Biogel P2, was applied to separate radioactive product from un-reacted [9-^3H] NeuAc as described below.
(§3) The radioactive products from neutral allyl and methyl glycosides as well as non-glycosides were measured by fractionation on Dowex-1-Formate (Bio-Rad: AG-1X8; 200-400 mesh; format form) as follows: The incubation mixture was diluted with 1.0 ml water and passed through AG-1-formate column (1.0 ml bed volume in a Pasteur pipet which had been washed with 5 ml of 2M Formic acid followed by 10 ml water). The column was washed twice with 1.0 ml water after the entry of the sample and then eluted with 3.0 ml of 0.1M NaCl. The radioactivity present in water and 0.1M NaCl eluates were measured separately using 3a70 scintillation cocktail (Research Products International, Mount Prospect, Ill.) and a Beckman LS6500 scintillation counter. The CPM values were corrected by subtracting the blank CPM. Any radioactivity present in the water eluate (as noticed in the case of some methylglycosides) was added to the corresponding CPM value of 0.1M NaCl eluate. The radioactive products from sulfated and/or sialylated methylglycosides were also measured by the above procedure, only the elution of the AG-1-Formate column was continued further with 3.0 ml of 0.2M NaCl for achieving a complete elution of the radioactive product, a correction being made as before by subtracting the corresponding blank values.
(§4) The radioactive products from benzylglycosides and monosialylated benzylglycosides were measured by hydrophobic chromatography on Sep-Pak C18 cartridge (Waters, Milford, Mass.) and eluting the product with 3.0 ml methanol (30). The radioactivity was determined by liquid scintillation as above.
(§5) For such work, a Biogel P2 column (Fine Mesh; 1.0×116.0 cm) was used with 0.1M pyridine acetate pH5.4 as the eluent at room temperature. The effluent fractions were monitored for radioactivity and the first peak containing radioactivity was collected, lyophilized to dryness, dissolved in 200 μl of water and stored frozen at −20° C. for thin layer chromatography (TLC) and other experimentation.

LNCaP α2,3(O)ST = assay: Sialyltransferase assay with LNCaP cell extract; format: biochemical, human
Description: The prostate carcinoma cell line, LNCaP, was grown in RPMI 1640 supplemented with 10% fetal bovine serum and antibiotics (penicillin, streptomycin and amphotericin B) under conditions recommended by American Type Culture Collection (Manassas, Va.). The cells were homogenized with 0.1M Tris-Maleate pH6.3 containing 2% Triton X-100 using a Dounce all glass hand-operated homogenizer. The homogenate was centrifuged at 16,000 g for 1 h at 4° C. Protein concentration in supernatant was measured using the BCA assay (Pierce Biotech, Inc., Rockford, Ill.), with BSA as the standard. The supernatant was adjusted to 5 mg protein/ml by adding the necessary amount of extraction buffer and then stored frozen at −20° C. until use. 10 μl aliquot of this extract was used in assays run in duplicate.
as §2, §3, §4, §5

[2] = target: T2, Rat recombinant α2,3(N)ST (Rattus norvegicus, UniProt Q02734); assay: Sialyltransferase assay with cloned α2,3(N)ST; format: biochemical; conditions: Table I; acceptor 7.5 mM; 100% = 29520 CPM (Galβ1,4GlcNAcβ-O—Al)
T2 construct: purchased Calbiochem
T2 sequence (Q02734 29-374 limits assumed): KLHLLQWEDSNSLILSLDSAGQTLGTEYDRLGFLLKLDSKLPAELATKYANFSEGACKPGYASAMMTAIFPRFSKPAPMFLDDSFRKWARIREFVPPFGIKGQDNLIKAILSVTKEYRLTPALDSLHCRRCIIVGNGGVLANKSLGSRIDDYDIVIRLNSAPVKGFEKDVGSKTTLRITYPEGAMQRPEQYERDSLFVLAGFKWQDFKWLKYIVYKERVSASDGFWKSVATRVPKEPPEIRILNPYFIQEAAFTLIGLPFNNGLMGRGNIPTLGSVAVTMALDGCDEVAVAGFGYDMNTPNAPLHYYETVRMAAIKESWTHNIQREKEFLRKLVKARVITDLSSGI
Description: as §1, §2, §3, §4, §5

[3] = Table I, acceptor 7.5 mM, 100% = 40560 CPM (3-O-MeGalβ1,4GlcNAcβ1,6(Galβ1,3)GalNAcα-O-Bn)
[4] = Table I, acceptor 7.5 mM, 100% = 30930 CPM (3-O-MeGalβ1,4GlcNAcβ1,6(Galβ1,3)GalNAcα-O-Bn)
[5] = Table II, acceptor 0.75 mM, relative to Galβ1,3GalNAcα-O-Bn
[6] = Table II, acceptor 7.5 mM, relative to Galβ1,3GalNAcα-O-Bn
[7] = Table IV, compound 7.5 mM, relative to Galβ1,3(GlcNAcβ1,6)GalNAcα-O—Al

| SMILES | Sialyltransferase activity (%) Cloned α2,3(O)ST [1, 5] | Sialyltransferase activity (%) LNCaP α2,3(O)ST (LNCaP α2,3(O)ST; [5]) | Km [1] | Vmax [1] | also measured |
| --- | --- | --- | --- | --- | --- |
| CO[C@H]1O[C@H](CO[C@@H]2O[C@H](CO)[C@@H](O[C@@H]3O[C@H](CO)[C@H](O)[C@H](O)[C@H]3NC(C)=O)[C@H](O[C@@H]3O[C@@H](C)[C@@H](O)[C@@H](O)[C@@H]3O)[C@H]2NC(C)=O)[C@H](O)[C@H](O[C@@H]2O[C@H](CO)[C@H](O)[C@H](O)[C@H]2O)[C@H]1NC(C)=O [GalNAcβ1,4(Fucα1,3)GlcNAcβ1,6(Galβ1,3)GalNAcα-O-Me] |  |  |  |  | Sialyltransferase activity (%) Cloned α2,3(O)ST [1, 3]: 134.9%; Sialyltransferase activity (%) LNCaP α2,3(O)ST (LNCaP α2,3(O)ST; [4]): 21.1% |
| CO[C@H]1[C@@H](O)[C@@H](CO)O[C@@H](O[C@H]2[C@@H](O)[C@@H](CO)O[C@H](OCc3ccccc3)[C@@H]2NC(C)=O)[C@@H]1O [3-O-MeGalβ1,3GalNAcα-O-Bn] | 70.4% | 2.6% |  |  | Sialyltransferase activity (%) Cloned α2,3(O)ST [1, 6]: 101.8%; Sialyltransferase activity (%) LNCaP α2,3(O)ST (LNCaP α2,3(O)ST; [6]): 15.5% |
| COC1OC(COC2OC(COS(=O)(=O)O)C(OC3OC(CO)C(O)C(OC4(C(=O)O)CC(O)C(NC(C)=O)C(C(O)C(O)CO)O4)C3O)C(OC3OC(C)C(O)C(O)C3O)C2NC(C)=O)C(O)C(OC2OC(CO)C(O)C(O)C2O)C1NC(C)=O (centres unmarked) [NeuAcα2,3Galβ1,4(6-O-Sulfo)(Fucα1,3)GlcNAcβ1,6(Galβ1,3)GalNAcα-O-Me] |  |  |  |  | Sialyltransferase activity (%) Cloned α2,3(O)ST [1, 3]: 7.4% |
| CC(=O)N[C@H]1[C@H](OC[C@H]2O[C@H](OCc3ccccc3)[C@H](NC(C)=O)[C@@H](O[C@@H]3O[C@H](CO)[C@H](O)[C@H](O[C@@]4(C(=O)O)C[C@H](O)[C@@H](NC(C)=O)[C@H]([C@H](O)[C@H](O)CO)O4)[C@H]3O)[C@H]2O)O[C@H](CO)[C@@H](O[C@@H]2O[C@H](CO)[C@H](O)[C@H](O)[C@H]2O)[C@@H]1O[C@@H]1O[C@@H](C)[C@@H](O)[C@@H](O)[C@@H]1O [Galβ1,4(Fucα1,3)GlcNAcβ1,6(NeuAcα2,3Galβ1,3)GalNAcα-O-Bn] |  |  |  |  | Sialyltransferase activity (%) Cloned α2,3(N)ST [2]: 27.1% |
| CO[C@@H]1[C@H](O)[C@@H](O)[C@H](O[C@H]2[C@@H](O)[C@@H](CO)O[C@H](OCc3ccccc3)[C@@H]2NC(C)=O)O[C@@H]1CO [4-O-MeGalβ1,3GalNAcα-O-Bn] | 104.6^9% | 141.5% | 130 µM | 1250 pmol/h | Sialyltransferase activity (%) Cloned α2,3(O)ST [1, 6]: 105.0^9%; Sialyltransferase activity (%) LNCaP α2,3(O)ST (LNCaP α2,3(O)ST; [6]): 188.7% |
| CC(=O)N[C@H]1[C@@H](OCc2ccccc2)O[C@H](CO)[C@H](O)[C@@H]1O[C@@H]1O[C@H](CO)[C@H](F)[C@H](O)[C@H]1O [4-F-Galβ1,3GalNAcα-O-Bn] | 104.6^10% | 44.8% | 250 µM | 1442 pmol/h | Sialyltransferase activity (%) Cloned α2,3(O)ST [1, 6]: 102.3^10%; Sialyltransferase activity (%) LNCaP α2,3(O)ST (LNCaP α2,3(O)ST; [6]): 105.1% |
| CC(=O)NC1C(OC2C(O)C(CO)OC(OC3C(CO)OC(OCc4ccccc4)C(NC(C)=O)C3O)C2O)OC(CO)C(OC2OC(CO)C(O)C(O)C2O)C1O (centres unmarked) [Galβ1,4GlcNAcβ1,3Galβ1,4GlcNAcβ-O-Bn] |  |  |  |  | Sialyltransferase activity (%) Cloned α2,3(O)ST [1, 3]: 8.7% |
| COC[C@H]1O[C@H](OCc2ccccc2)[C@H](NC(C)=O)[C@@H](O[C@@H]2O[C@H](CO)[C@H](O)[C@H](O)[C@H]2O)[C@H]1O [Galβ1,3(6-O-Me)GalNAcα-O-Bn] | 107.6^11% | 119.2% |  |  | Sialyltransferase activity (%) Cloned α2,3(O)ST [1, 6]: 107.3^11%; Sialyltransferase activity (%) LNCaP α2,3(O)ST (LNCaP α2,3(O)ST; [6]): 189.4% |
| CC(=O)N[C@H]1[C@H](OC[C@H]2O[C@H](OCc3ccccc3)[C@H](NC(C)=O)[C@@H](O[C@@H]3O[C@H](CO)[C@H](O)[C@H](O)[C@H]3O[C@@H]3O[C@@H](C)[C@@H](O)[C@@H](O)[C@@H]3O)[C@H]2O)O[C@H](CO)[C@@H](O)[C@@H]1O [Fucα1,2Galβ1,3(GlcNAcβ1,6)GalNAcα-O-Bn] |  |  | 1820 µM | 197 pmol/h | Sialyltransferase activity (%) Cloned α2,3(O)ST [1, 7]: 45.4% |
| COC1OC(CO)C(O)C(OC2OC(CO)C(O)C(OC3OC(CO)C(O)C(OS(=O)(=O)O)C3O)C2NC(C)=O)C1O (centres unmarked) [3-O-SulfoGalβ1,3GalNAcβ1,3Galα-O-Me] |  |  | 1250 µM | 416 pmol/h |  |
| COC1OC(COC2OC(CO)C(OC3OC(CO)C(O)C(OC4(C(=O)O)CC(O)C(NC(C)=O)C(C(O)C(O)CO)O4)C3O)C(O)C2NC(C)=O)C(O)C(OC2OC(CO)C(O)C(O)C2O)C1NC(C)=O (centres unmarked) [NeuAcα2,3Galβ1,4GlcNAcβ1,6(Galβ1,3)GalNAcα-O-Me] |  |  |  |  | Sialyltransferase activity (%) Cloned α2,3(O)ST [1, 3]: 35.2%; Sialyltransferase activity (%) LNCaP α2,3(O)ST (LNCaP α2,3(O)ST; [4]): 5.1% |
| CC(=O)NC1C(OCC2OC(OCc3ccccc3)C(NC(C)=O)C(OC3OC(CO)C(O)C(OS(=O)(=O)O)C3O)C2O)OC(CO)C(O)C1O (centres unmarked) [3-O-SulfoGalβ1,3(GlcNAcβ1,6)GalNAcα-O-Bn, 3-O-SulfoGalβ1,3(GlcNAcβ1,6) GalNAcα-O-Bn] |  |  |  |  | Sialyltransferase activity (%) Cloned α2,3(O)ST [1, 7]: 54.7% |
| CO[C@H]1O[C@H](CO)[C@H](O)[C@H](O[C@@H]2O[C@H](CO)[C@H](O)[C@H](O[C@@H]3O[C@H](C)[C@H](O)[C@H](OS(=O)(=O)O)[C@H]3O)[C@H]2NC(C)=O)[C@H]1O [3-O-SulfoD-Fucβ1,3GalNAcβ1,3Galα-O-Me] |  |  | 2000 µM | 624 pmol/h |  |
| CO[C@H]1[C@@H](O)[C@@H](CO)O[C@@H](O[C@H]2[C@@H](O)[C@@H](CO[C@@H]3O[C@H](CO)[C@@H](O)[C@H](O)[C@H]3NC(C)=O)O[C@H](OCc3ccccc3)[C@@H]2NC(C)=O)[C@@H]1O [3-O-MeGalβ1,3(GlcNAcβ1,6)GalNAcα-O-Bn, 3-O-MeGalβ1,3(GlcNAcβ1,6) GalNAcα-O-Bn] |  |  |  |  | Sialyltransferase activity (%) Cloned α2,3(O)ST [1, 7]: 24.7% |
| COC[C@H]1O[C@H](OCc2ccccc2)[C@H](NC(C)=O)[C@@H](O[C@@H]2O[C@H](CO)[C@H](O)[C@H](OC)[C@H]2O)[C@H]1O [3-O-MeGalβ1,3(6-O-Me)GalNAcα-O-Bn] | 55.9% | 1.1% |  |  |  |
